In assay [1] the target is Receptor tyrosine-protein kinase erbB-2 (Homo sapiens, UniProt P04626). In words: Selectivity interaction (Kinase panel (Z-LYTE Assay)) EUB0001632a ERBB2. The following applies: at 10 µM.
In assay [2] the target is T1, Serine/threonine-protein kinase Nek2 (Homo sapiens) (UniProt P51955).
T1 sequence (whole entry): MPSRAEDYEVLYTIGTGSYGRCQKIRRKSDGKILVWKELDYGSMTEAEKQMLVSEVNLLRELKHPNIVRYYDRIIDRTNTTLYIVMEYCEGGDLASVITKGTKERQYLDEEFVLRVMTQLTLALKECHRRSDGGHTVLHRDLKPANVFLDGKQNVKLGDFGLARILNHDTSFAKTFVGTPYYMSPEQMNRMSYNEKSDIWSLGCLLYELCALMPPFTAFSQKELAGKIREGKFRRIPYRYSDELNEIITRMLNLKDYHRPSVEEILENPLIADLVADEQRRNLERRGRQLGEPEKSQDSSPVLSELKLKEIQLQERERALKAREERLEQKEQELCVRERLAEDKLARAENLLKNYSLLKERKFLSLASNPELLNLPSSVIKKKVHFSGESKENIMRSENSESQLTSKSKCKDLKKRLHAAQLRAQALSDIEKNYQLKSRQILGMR
In words: Selectivity interaction (Kinase panel (Z-LYTE Assay)) EUB0001632a NEK2. The conditions noted are these: at 10 µM.

The target of assay [3] is Serine/threonine-protein kinase pim-1 (Homo sapiens, UniProt P11309). The assay is described as follows: Selectivity interaction (KinomeScan (DiscoverX)) EUB0001619a PIM1. The following applies: at 1 µM.
The target of assay [4] is T2, Aurora kinase C (Homo sapiens) (UniProt Q9UQB9).
T2 sequence (whole entry): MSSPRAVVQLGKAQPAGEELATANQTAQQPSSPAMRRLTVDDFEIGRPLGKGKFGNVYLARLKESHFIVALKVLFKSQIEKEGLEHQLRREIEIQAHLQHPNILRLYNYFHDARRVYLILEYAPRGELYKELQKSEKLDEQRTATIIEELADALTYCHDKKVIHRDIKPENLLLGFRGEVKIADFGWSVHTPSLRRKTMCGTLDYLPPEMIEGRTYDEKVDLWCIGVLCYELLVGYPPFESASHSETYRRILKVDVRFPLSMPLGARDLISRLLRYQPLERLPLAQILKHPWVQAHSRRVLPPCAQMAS
In words: Selectivity interaction (KinomeScan (DiscoverX)) EUB0000607a AURKC. The conditions noted are these: at 10 µM.

In assay [5] the target is Ribosomal protein S6 kinase beta-1 (Homo sapiens, UniProt P23443). In words: Selectivity interaction (SelectScreen profiling (Invitrogen)) EUB0000607a RPS6KB1. The conditions noted are these: at 2 µM.
Assay [6] deals with T3, Dual serine/threonine and tyrosine protein kinase (Homo sapiens) (UniProt Q6XUX3).
T3 sequence (whole entry): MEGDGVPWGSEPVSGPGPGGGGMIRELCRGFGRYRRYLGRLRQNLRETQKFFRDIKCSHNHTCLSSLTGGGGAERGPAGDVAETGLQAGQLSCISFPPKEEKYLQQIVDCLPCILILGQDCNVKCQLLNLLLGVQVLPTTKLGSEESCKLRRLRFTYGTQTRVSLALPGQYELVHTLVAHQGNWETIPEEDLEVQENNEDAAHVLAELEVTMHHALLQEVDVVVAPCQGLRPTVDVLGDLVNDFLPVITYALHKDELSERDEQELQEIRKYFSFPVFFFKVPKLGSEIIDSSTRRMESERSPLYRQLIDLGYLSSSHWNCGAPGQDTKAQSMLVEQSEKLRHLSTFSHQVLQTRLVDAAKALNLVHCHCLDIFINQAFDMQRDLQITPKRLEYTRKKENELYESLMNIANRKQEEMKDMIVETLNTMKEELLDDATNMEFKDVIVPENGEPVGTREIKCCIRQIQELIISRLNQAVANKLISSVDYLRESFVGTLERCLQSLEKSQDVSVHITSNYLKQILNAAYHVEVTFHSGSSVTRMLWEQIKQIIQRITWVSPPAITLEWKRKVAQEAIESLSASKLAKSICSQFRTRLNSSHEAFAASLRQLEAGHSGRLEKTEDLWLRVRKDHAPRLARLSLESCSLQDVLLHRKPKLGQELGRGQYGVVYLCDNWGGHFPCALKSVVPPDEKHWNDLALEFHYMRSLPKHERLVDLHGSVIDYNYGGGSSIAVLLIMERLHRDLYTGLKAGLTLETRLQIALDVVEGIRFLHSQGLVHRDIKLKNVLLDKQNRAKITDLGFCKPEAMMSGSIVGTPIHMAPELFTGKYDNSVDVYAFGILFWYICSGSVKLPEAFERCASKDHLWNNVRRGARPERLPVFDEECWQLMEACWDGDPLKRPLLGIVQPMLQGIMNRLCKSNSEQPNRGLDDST
The conditions noted are these: at 10 µM.

The target in assay [7] is BDNF/NT-3 growth factors receptor (Homo sapiens) (UniProt Q16620). In words: Selectivity interaction (KinomeScan (DiscoverX)) EUB0000655a NTRK2. The following applies: at 10 µM.
Assay [8] addresses T4, Prostaglandin G/H synthase 2 (Homo sapiens) (UniProt P35354).
T4 sequence (whole entry): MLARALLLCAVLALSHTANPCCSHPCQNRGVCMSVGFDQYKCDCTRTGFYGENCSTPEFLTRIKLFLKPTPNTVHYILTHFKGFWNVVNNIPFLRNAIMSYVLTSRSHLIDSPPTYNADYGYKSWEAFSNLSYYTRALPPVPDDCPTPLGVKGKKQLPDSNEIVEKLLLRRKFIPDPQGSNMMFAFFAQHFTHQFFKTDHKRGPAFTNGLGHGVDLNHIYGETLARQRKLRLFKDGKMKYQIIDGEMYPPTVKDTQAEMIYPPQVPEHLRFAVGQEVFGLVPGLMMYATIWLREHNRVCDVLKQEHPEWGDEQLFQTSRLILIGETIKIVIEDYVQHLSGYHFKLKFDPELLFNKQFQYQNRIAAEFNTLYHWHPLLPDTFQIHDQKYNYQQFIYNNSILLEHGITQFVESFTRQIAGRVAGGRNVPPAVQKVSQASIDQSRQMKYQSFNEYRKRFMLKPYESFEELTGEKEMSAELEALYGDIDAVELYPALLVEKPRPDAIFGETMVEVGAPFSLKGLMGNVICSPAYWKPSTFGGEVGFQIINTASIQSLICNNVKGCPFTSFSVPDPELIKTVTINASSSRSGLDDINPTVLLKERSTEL
The assay is described as follows: Selectivity interaction (Panel of kinases, GPCRs, ion channels and transporters (enzymatic assay)) EUB0000266bCl PTGS2.

This note sets out measurements from ChEMBL document CHEMBL5465560, “Selectivity Literature for EUbOPEN Chemogenomic Library” (2024).

Sequence of Ribosomal protein S6 kinase beta-1 (P23443 whole entry, looked up): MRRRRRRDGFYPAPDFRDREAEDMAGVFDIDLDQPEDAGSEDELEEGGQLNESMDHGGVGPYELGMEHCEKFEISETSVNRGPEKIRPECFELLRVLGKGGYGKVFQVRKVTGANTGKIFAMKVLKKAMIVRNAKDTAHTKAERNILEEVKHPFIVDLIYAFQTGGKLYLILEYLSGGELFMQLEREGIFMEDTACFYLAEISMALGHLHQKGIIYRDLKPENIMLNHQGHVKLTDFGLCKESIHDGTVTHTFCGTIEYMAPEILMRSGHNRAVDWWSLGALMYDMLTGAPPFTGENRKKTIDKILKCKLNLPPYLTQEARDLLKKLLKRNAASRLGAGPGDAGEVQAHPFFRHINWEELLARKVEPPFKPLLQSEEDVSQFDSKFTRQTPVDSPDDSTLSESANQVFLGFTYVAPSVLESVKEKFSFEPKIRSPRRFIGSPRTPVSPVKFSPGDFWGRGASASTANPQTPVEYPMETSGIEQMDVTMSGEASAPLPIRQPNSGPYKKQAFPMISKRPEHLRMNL
Sequence of BDNF/NT-3 growth factors receptor (Homo sapiens) (Q16620 32-822 limits assumed): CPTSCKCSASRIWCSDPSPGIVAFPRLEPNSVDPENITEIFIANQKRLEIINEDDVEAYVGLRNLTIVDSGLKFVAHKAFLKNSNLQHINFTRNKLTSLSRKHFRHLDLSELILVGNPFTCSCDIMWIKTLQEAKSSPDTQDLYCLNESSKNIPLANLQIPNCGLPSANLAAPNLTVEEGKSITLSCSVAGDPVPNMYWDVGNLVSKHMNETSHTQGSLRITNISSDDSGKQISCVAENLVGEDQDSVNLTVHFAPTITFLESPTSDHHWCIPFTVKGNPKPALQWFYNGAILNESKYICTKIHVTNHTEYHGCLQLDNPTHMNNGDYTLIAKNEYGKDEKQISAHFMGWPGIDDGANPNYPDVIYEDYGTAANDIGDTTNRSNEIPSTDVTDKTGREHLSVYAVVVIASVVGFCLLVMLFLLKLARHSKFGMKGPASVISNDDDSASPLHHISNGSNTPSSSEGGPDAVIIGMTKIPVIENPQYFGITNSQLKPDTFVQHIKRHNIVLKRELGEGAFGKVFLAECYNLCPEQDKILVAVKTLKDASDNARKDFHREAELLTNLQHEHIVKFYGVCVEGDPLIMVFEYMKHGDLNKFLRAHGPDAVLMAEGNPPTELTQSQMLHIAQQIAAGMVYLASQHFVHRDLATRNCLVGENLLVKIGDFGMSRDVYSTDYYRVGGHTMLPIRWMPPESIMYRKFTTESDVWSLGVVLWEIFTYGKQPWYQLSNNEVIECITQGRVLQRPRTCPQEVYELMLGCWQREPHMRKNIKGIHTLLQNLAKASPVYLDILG
Sequence of Serine/threonine-protein kinase pim-1 (P11309 whole entry, looked up): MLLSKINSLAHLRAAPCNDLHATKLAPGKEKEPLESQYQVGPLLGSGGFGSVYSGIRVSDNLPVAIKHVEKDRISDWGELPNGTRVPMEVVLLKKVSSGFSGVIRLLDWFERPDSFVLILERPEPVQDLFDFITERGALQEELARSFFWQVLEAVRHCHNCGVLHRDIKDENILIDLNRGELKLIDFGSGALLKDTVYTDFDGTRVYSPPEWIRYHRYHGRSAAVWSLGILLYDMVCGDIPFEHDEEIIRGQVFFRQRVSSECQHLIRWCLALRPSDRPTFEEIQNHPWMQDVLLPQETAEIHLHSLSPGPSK
Sequence of Receptor tyrosine-protein kinase erbB-2 (P04626 whole entry): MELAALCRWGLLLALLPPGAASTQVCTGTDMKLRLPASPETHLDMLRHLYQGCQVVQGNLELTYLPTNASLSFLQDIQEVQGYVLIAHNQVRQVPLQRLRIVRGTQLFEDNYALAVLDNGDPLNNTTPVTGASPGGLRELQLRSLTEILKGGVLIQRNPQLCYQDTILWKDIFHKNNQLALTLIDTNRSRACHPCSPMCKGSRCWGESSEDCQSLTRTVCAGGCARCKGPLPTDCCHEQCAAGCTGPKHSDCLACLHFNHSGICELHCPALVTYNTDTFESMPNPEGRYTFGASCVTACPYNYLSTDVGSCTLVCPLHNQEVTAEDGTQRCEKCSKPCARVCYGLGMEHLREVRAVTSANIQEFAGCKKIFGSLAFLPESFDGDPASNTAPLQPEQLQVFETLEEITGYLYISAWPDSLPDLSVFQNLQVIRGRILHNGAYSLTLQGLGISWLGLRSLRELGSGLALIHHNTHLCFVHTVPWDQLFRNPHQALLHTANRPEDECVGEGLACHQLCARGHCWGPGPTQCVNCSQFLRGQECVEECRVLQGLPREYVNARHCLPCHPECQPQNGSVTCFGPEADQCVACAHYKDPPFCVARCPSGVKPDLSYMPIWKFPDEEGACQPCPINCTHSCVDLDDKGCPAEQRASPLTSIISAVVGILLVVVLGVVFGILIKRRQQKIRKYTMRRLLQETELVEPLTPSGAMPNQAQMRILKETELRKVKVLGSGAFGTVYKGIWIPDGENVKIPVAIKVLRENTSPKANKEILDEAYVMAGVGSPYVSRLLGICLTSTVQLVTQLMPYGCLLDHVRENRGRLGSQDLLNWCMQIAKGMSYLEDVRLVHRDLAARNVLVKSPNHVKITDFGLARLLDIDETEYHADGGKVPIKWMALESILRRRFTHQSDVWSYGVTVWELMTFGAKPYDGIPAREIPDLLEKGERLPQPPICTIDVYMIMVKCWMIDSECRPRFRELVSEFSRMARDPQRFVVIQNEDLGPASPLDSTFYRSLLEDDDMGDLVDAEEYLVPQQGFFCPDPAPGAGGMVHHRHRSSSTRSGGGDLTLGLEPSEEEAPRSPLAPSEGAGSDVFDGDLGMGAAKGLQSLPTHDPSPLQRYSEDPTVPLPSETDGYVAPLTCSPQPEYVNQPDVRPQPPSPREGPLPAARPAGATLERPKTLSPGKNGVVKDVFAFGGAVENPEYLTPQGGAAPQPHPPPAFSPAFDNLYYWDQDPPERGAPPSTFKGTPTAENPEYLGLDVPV

In the case of `Cn1cc(-n2cnc3c(NCc4nc5cc(Cl)c(Cl)cc5[nH]4)nc(N4CCOCC4)nc32)cn1`, the % of control was -0.819% in assay [1] and 1.81% in assay [2].

As for `N#Cc1cccc(-c2c[nH]c3ncnc(N4CCOCC4)c23)c1`, the % of control in assay [3] is 100%.

Regarding `CNC(=O)Nc1ccc(-c2nc(N3CC4CCC(C3)O4)c3cnn(C4CCC5(CC4)OCCO5)c3n2)cc1`, the % of control in assay [4] was determined as 86%. For the same molecule, in assay [5], the % of inhibition was 2%.

Turning to `Cc1cc([C@@H](C)Nc2ccccc2C(=O)O)c2nc(N3CCOCC3)cc(=O)n2c1` [AZD-6482], in assay [6], the % of control was 100%.

On to `CN(C)CCOc1ccc(-c2nc(-c3ccncc3)c(-c3ccc4c(c3)CC/C4=N\O)[nH]2)cc1`, for which the % of control in assay [7] is 75%.

Turning to `CCn1c(-c2nc3cc(C(=O)N4CCCC(N)C4)ccc3n2C)cc2ccccc21` (stereo not drawn), in assay [8], the pXC50 was less than 4 M.
